What was measured:
Assay type in all cases: functional
Mus musculus [1] = experiment: Narcotic antagonist activity in sc dosed mouse assessed as reversal of oxymorphone-induced straub tail response administered 10 mins before oxymorphone challenge
Mus musculus [2] = experiment: Analgesic activity in sc dosed mouse assessed as phenylquinone-induced writhing measured for 10 mins
Rattus norvegicus [3] = experiment: Analgesic activity in sc dosed rat assessed as phenylquinone-induced writhing measured for 10 mins
Rattus norvegicus [4] = organism: Rattus norvegicus; experiment: Antagonist activity in rat assessed as morphine-induced analgesia by […] tail flick test
Mus musculus [5] = experiment: Narcotic antagonist activity in sc dosed mouse assessed as reversal of oxymorphone-induced narcosis
[6] = Mus musculus, sc, read-out: ED50
[7] = Mus musculus, sc, 10 min, read-out: ED50

| SMILES | ED50 (Mus musculus [1]; [6]) [mg/kg] | ED50 (Mus musculus [2]; [7]) [mg/kg] | ED50 (Mus musculus [1]) [mg/kg] | ED50 (Mus musculus [2]) [mg/kg] | ED50 (Rattus norvegicus [3]) [mg/kg] | ED50 (Rattus norvegicus [4]) [mg/kg] | ED50 (Mus musculus [5]) [mg/kg] |
| --- | --- | --- | --- | --- | --- | --- | --- |
| C=CCC12CCN(C)C(Cc3ccc(O)cc31)[C@@H]2O (stereo partly specified) | > 40 | > 40 |  |  |  |  |  |
| CC1CC23CCN(C)C(Cc4ccc(O)cc42)C3(C)O1 (stereo unspecified) | > 40 | 0.4 |  |  |  |  |  |
| CC1CC23CCN(CC4CC4)C(Cc4ccc(O)cc42)C3(C)O1 (stereo unspecified) | 5 | > 40 |  |  |  |  |  |
| CN1CC[C@]23CCCO[C@@H]2[C@H]1Cc1ccc(O)cc13 | > 40 | 30 |  |  |  |  |  |
| Oc1ccc2c(c1)[C@@]13CCCO[C@@H]1[C@@H](C2)N(CC1CC1)CC3 | 20 | 8.4 |  |  |  |  |  |
| C=CCC12CCN(CC3CC3)C(Cc3ccc(O)cc31)[C@@H]2O (stereo partly specified) | 1.9 | 0.23 |  |  |  |  |  |
| C=CCC12CCN(CC3CCC3)C(Cc3ccc(O)cc31)[C@@H]2O (stereo partly specified) | 4.5 | 11 |  |  |  |  |  |
| C=CCC12CCN(CC3CC3)C(Cc3ccc(O)cc31)[C@]2(C)O (stereo partly specified) | 0.8 | > 40 |  |  |  |  |  |
| C=CCC12CCN(CC3CCC3)C(Cc3ccc(O)cc31)[C@]2(C)O (stereo partly specified) | 10 | 1.3 |  |  |  |  |  |
| CC1CC23CCN(C)C(Cc4ccc(O)cc42)C3O1 (stereo unspecified) | > 40 | 1.8 |  |  |  |  |  |
| CN1CC[C@]23CCCO[C@]2(C)[C@H]1Cc1ccc(O)cc13 | > 40 | > 40 |  |  |  |  |  |
| C[C@]12OCCC[C@@]13CCN(CC1CC1)[C@@H]2Cc1ccc(O)cc13 | 6 | 35 |  |  |  |  |  |
| C[C@]12OCCC[C@@]13CCN(CC1CCC1)[C@@H]2Cc1ccc(O)cc13 | 5 | 16 |  |  |  |  |  |
| CN1CC[C@]23CCCO[C@H]2[C@H]1Cc1ccc(O)cc13 | > 40 | 0.6 |  |  |  |  |  |
| CN1CC[C@]23CCCO[C@@]2(C)[C@H]1Cc1ccc(O)cc13 | > 40 | 0.03 |  |  |  |  |  |
| Oc1ccc2c(c1)[C@@]13CCCO[C@H]1[C@@H](C2)N(CC1CCC1)CC3 | 10 | 0.15 |  |  |  |  |  |
| C[C@@]12OCCC[C@@]13CCN(CC1CCC1)[C@@H]2Cc1ccc(O)cc13 | 23 | 0.068 |  |  |  |  |  |
| C=CCN1CC[C@]23CCCO[C@@]2(C)[C@H]1Cc1ccc(O)cc13 | 1 | 28 |  |  |  |  |  |
| CC(C)=CCN1CC[C@]23CCCO[C@@]2(C)[C@H]1Cc1ccc(O)cc13 | > 40 | 0.18 |  |  |  |  |  |
| Oc1ccc2c(c1)[C@@]13CCCO[C@H]1[C@@H](C2)N(CC1CC1)CC3 (stereo in doubt; 6c) |  |  | 0.3 | 0.03 |  |  |  |
| C[C@@]12OCCC[C@@]13CCN(CC1CC1)[C@@H]2Cc1ccc(O)cc13 (stereo in doubt; 6d) |  |  | 0.61 | 0.19 |  |  |  |
| Oc1ccc2c(c1)[C@@]13CCCO[C@H]1[C@@H](C2)N(CC1CC1)CC3 (stereo in doubt; (+)-6c) |  |  | >40 | >40 |  |  |  |
| C[C@@]12OCCC[C@@]13CCN(CC1CC1)[C@@H]2Cc1ccc(O)cc13 (stereo in doubt; (+)-6d) |  |  | >40 | >40 |  |  |  |
| Oc1ccc2c(c1)[C@@]13CCCO[C@H]1[C@@H](C2)N(CC1CC1)CC3 (stereo in doubt; (-)-6c) |  |  | 0.26 | 0.013 | 0.09 | 0.097 | 0.04 |
| C[C@@]12OCCC[C@@]13CCN(CC1CC1)[C@@H]2Cc1ccc(O)cc13 (stereo in doubt; (-)-6d) |  |  | 0.2 | 0.105 | 0.2 | 0.021 | 0.014 |
| Oc1ccc2c(c1)[C@@]13CCCC[C@@]1(O)[C@@H](C2)N(CC1CCC1)CC3 [BUTORPHANOL] | 0.98 | 0.051 |  |  | 0.04 | 0.43 | 0.27 |
| Oc1ccc2c(c1)[C@@]13CCCC[C@H]1[C@@H](C2)N(CC1CC1)CC3 [CYCLORPHAN] | 0.32 | 0.013 |  |  | 0.028 | 0.032 | 0.1 |
| Oc1ccc2c(c1)[C@@]13CCCC[C@@]1(O)[C@@H](C2)N(CC1CC1)CC3 [OXILORPHAN] | 0.19 | 12.8 |  |  | 8 | 0.012 | 0.03 |
